In the assay the target is T1, Human MDM2 (HDM2) 1-116 (Homo sapiens, UniProt Q00987).
T1 construct: Human MDM2 (HDM2) 1-116
Put plainly: Fluorescence polarization assay, MDM2/p53 (Table 3). The assay is classed as binding. Here is the method: (§1) Human MDM2 (HDM2) 1-116 (20 μL) and FITC-labeled p53 (18-26), 50 nM and 10 nM respectively in 10 mM Tris, 50 mM NaCl, 0.01% Tween20, and 1 mM DTT at pH 7.4 were dispensed into an opaque, black, 384 well plate. Compounds dissolved in DMSO were pin transferred (˜200 nL) to the 384 well plate containing the MDM2/p53 solution. After incubation for 10 minutes, the fluorescence polarization was read on a Molecular Devices SpectraMax plate reader equipped with a Fluorescein FP cartridge. In addition to probe alone (positive control) and probe/MDM2 (negative control), a titration of linear p53(18-26) was included on every plate as an additional control. IC50 values were fit using either Prism or Collaborative Drug Discovery.
as §1, with “and FAM-labeled RFMDYWEGL-NH2,” for “and FITC-labeled p53 (18-26),”, “NaCl, 0.010%” for “NaCl, 0.01%”, “transferred (˜100-200” for “transferred (˜200”, “for 60” for “for 10”

Non-standard residues stand in square brackets, D forms with d. Residues, ends and D or L forms follow the SMILES beside them. Trp(6-Cl) = N[C@@H](Cc1c[nH]c2cc(Cl)ccc12)C(=O)O; Phe(4-Cl) = N[C@@H](Cc1ccc(Cl)cc1)C(=O)O; Phe(4-F) = N[C@@H](Cc1ccc(F)cc1)C(=O)O; 2Thi = N[C@@H](Cc1cccs1)C(=O)O; NMeL = CN[C@@H](CC(C)C)C(=O)O

T1 sequence (Q00987 1-116): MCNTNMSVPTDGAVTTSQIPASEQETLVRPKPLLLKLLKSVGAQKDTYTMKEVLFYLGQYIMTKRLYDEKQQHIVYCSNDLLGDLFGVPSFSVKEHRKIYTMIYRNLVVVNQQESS

The term IC50 denotes the concentration that inhibits the measured activity by half. A high value points to lower potency. With `CC(C)C[C@@H]1NC(=O)[C@H](Cc2c[nH]c3cc(Cl)ccc23)NC(=O)[C@H](CCC(=O)O)NC(=O)[C@H](Cc2ccccc2)NC(=O)[C@@H]2CCCN2C(=O)[C@H]2CCCN2C(=O)[C@H](Cc2ccccc2)NC(=O)[C@H](CCC(=O)O)NC(=O)[C@H](Cc2c[nH]c3ccccc23)NC(=O)[C@H](CC(=O)O)NC1=O` [Compound 1, [H]OC(=O)CC[C@@H]1NC(=O)[C@H](Cc2cn([H])c3ccccc23)NC(=O)[C@H](CC(=O)O[H])NC(=O)[C@H](CC(C)C)NC(=O)[C@H](Cc2c[nH]c3cc(Cl)ccc23)NC(=O)[C@H](CCC(=O)O[H])NC(=O)[C@H](Cc2ccccc2)NC(=O)[C@@H]2CCCN2C(=O)[C@H]2CCCN2C(=O)[C@H](Cc2ccccc2)NC1=O] (cyclo(FE[Trp(6-Cl)]LDWEF[dP]P)), the IC50 was less than 1000 nM. With `CC(C)C[C@@H]1NC(=O)[C@H](Cc2c[nH]c3ccccc23)NC(=O)[C@H](CCC(=O)O)NC(=O)[C@H](Cc2ccccc2)NC(=O)[C@@H]2CCCN2C(=O)[C@H]2CCCN2C(=O)[C@H](Cc2ccccc2)NC(=O)[C@H](CCC(=O)O)NC(=O)[C@H](Cc2c[nH]c3ccccc23)NC(=O)[C@H](CC(=O)O)NC1=O` [Compound 2, [H]OC(=O)CC[C@@H]1NC(=O)[C@H](Cc2cn([H])c3ccccc23)NC(=O)[C@H](CC(=O)O[H])NC(=O)[C@H](CC(C)C)NC(=O)[C@H](Cc2cn([H])c3ccccc23)NC(=O)[C@H](CCC(=O)O[H])NC(=O)[C@H](Cc2ccccc2)NC(=O)[C@@H]2CCCN2C(=O)[C@H]2CCCN2C(=O)[C@H](Cc2ccccc2)NC1=O] (cyclo(FEWLDWEF[dP]P)) the figure was 1000 to 2500 nM. In turn, `CC(C)C[C@H]1C(=O)N[C@@H](CC(=O)O)C(=O)N[C@@H](Cc2c[nH]c3ccccc23)C(=O)N[C@@H](CCC(=O)O)C(=O)N[C@@H](Cc2ccccc2)C(=O)N2CCC[C@@H]2C(=O)N2CCC[C@H]2C(=O)N[C@@H](Cc2ccccc2)C(=O)N[C@@H](CCC(=O)O)C(=O)N[C@@H](Cc2c[nH]c3ccccc23)C(=O)N1C` [Compound 3, [H]OC(=O)CC[C@@H]1NC(=O)[C@H](Cc2ccccc2)NC(=O)[C@@H]2CCCN2C(=O)[C@H]2CCCN2C(=O)[C@H](Cc2ccccc2)NC(=O)[C@H](CCC(=O)O[H])NC(=O)[C@H](Cc2cn([H])c3ccccc23)NC(=O)[C@H](CC(=O)O[H])NC(=O)[C@H](CC(C)C)N(C)C(=O)[C@H](Cc2cn([H])c3ccccc23)NC1=O] (cyclo(FEW[NMeL]DWEF[dP]P)) registered an IC50 of less than 1000 nM.

`CC(C)C[C@H]1C(=O)N[C@@H](CC(=O)O)C(=O)N[C@@H](Cc2ccc(F)cc2)C(=O)N[C@@H](CCC(=O)O)C(=O)N[C@@H](Cc2ccc(Cl)cc2)C(=O)N2CCC[C@@H]2C(=O)N2CCC[C@H]2C(=O)N[C@@H](Cc2ccccc2)C(=O)N[C@@H](CCC(=O)O)C(=O)N[C@@H](Cc2c[nH]c3ccccc23)C(=O)N1C` [Compound 4, [H]OC(=O)CC[C@@H]1NC(=O)[C@H](Cc2ccccc2)NC(=O)[C@@H]2CCCN2C(=O)[C@H]2CCCN2C(=O)[C@H](Cc2ccc(Cl)cc2)NC(=O)[C@H](CCC(=O)O[H])NC(=O)[C@H](Cc2ccc(F)cc2)NC(=O)[C@H](CC(=O)O[H])NC(=O)[C@H](CC(C)C)N(C)C(=O)[C@H](Cc2cn([H])c3ccccc23)NC1=O] (cyclo(FEW[NMeL]D[Phe(4-F)]E[Phe(4-Cl)][dP]P)) yielded an IC50 of less than 1000 nM. As to `CC(C)C[C@H]1C(=O)N[C@@H](CC(=O)O)C(=O)N[C@@H](Cc2ccc(F)cc2)C(=O)N[C@@H](CCC(=O)O)C(=O)N[C@@H](Cc2ccccc2)C(=O)N2CCC[C@@H]2C(=O)N2CCC[C@H]2C(=O)N[C@@H](Cc2cccs2)C(=O)N[C@@H](CCC(=O)O)C(=O)N[C@@H](Cc2c[nH]c3ccccc23)C(=O)N1C` [Compound 5, [H]OC(=O)CC[C@@H]1NC(=O)[C@H](Cc2cccs2)NC(=O)[C@@H]2CCCN2C(=O)[C@H]2CCCN2C(=O)[C@H](Cc2ccccc2)NC(=O)[C@H](CCC(=O)O[H])NC(=O)[C@H](Cc2ccc(F)cc2)NC(=O)[C@H](CC(=O)O[H])NC(=O)[C@H](CC(C)C)N(C)C(=O)[C@H](Cc2cn([H])c3ccccc23)NC1=O] (cyclo([2Thi]EW[NMeL]D[Phe(4-F)]EF[dP]P)), the IC50 is less than 1000 nM.
